Usually MIC stands for the smallest concentration in the dilution series that meets the test's criterion for growth inhibition.

Experiment [1] deals with bacteria. In words: Minimum inhibitory concentration (MIC) assay, bacteria. In kind it is cell-based. The gist of the method: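 Broth microdilution adapted from NCCLS M7-A4; compounds from 10 mM DMSO stocks serially diluted 1:2 in growth medium suited to each bacterium. Inoculum adjusted to 0.5 McFarland in saline, final 1:200 dilution; MIC is lowest concentration preventing visible growth.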

Experiment [2] relates to Aspergillus species. In words: Minimum inhibitory concentration (MIC) assay, filamentous fungi. In kind it is cell-based. Particulars: antifungal activity, lowest concentration at which 75% inhibition of growth is observed after 48 h. The gist of the method: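 Broth microdilution following NCCLS M38-P, in MOPS-buffered medium at pH 7.0, with seven 1:2 serial dilutions starting at a final 50 μM. Conidial inoculum came from 7-day potato dextrose agar slants, adjusted to OD 0.09–0.11 then diluted. MIC = lowest concentration giving 75% growth inhibition after 48 h at 35 °C.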

With `N=C(N)CCCNC(=O)c1cc2ccc(NC(=O)c3cc4cc(C(=O)NCCNC(=N)N)ccc4[nH]3)cc2[nH]1` [Compound 181, 1H-Indole-2,5-dicarboxylic acid 2-{[2-(3-carbamimidoylpropylcarbamoyl)-1H-indol-6-yl]amide} 5-[(2-guanidinoethyl)amide]], the results for the MIC in experiment [1] and in experiment [2] were ≤ 45.5 µM and ≤ 50 µM, respectively.

Source of the values: patent US7141680B2, “Aromatic compounds possessing antifungal or antibacterial activity” (Genelabs Technologies, Inc., priority 2002, dated 2006).
